Measurements taken from patent publication US6737383B1, “Herbicidal oxadiazolidines” (priority 1999, dated 2004).

Columns and labels:
wheat = assay: Test B pre/postemergence wheat; format: in vivo, Triticum aestivum
Outline: (§1)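 Response is a visual 0-to-10 score relative to untreated plants, where 0 means no effect and 10 means complete control, taken twelve to sixteen days after application. Treatments went onto soil at planting and onto foliage of 1- to 4-leaf plants, using a surfactant-containing non-phytotoxic solvent.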

duck salad = assay: Test B flood test duck salad; format: in vivo, Heteranthera limosa; settings: for Plant response rating, Ducksalad (0 to 10 scale, 0 is no effect, 10 is complete control) / Ducksalad plant response rating (0 to 10 scale, 0 is no effect, 10 is complete control): visual evaluation after twelve to sixteen days; for Ducksalad plant response rating (0 to 10 scale, 0 is no effect, 10 is complete control): under heading Pre-emergence
Outline: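 Plants were grown to the 2-leaf stage before treatment with test chemical, then held in a greenhouse for twelve to sixteen days. Injury was visually rated against untreated controls on a 0–10 scale, where 0 is no effect and 10 is complete control.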

green foxtail = assay: Test E green foxtail; format: in vivo, Setaria viridis; settings: Preemergence, Rate 250 g/ha
wild oat = assay: Test E wild oat; format: in vivo, Avena fatua; settings: Preemergence, Rate 250 g/ha
Italian ryegrass = assay: Test E Italian ryegrass; format: in vivo, Lolium multiflorum; settings: Preemergence, Rate 250 g/ha
blackgrass = assay: Test E blackgrass; format: in vivo, Alopecurus myosuroides; settings: Preemergence, Rate 250 g/ha
winter barley = assay: Test E winter barley; format: in vivo, Hordeum vulgare; settings: Preemergence, Rate 250 g/ha
soybean = assay: Test B pre/postemergence soybean; format: in vivo, Glycine max
Outline: as §1

purple nutsedge = assay: Test B pre/postemergence purple nutsedge; format: in vivo, Cyperus rotundus
Outline: as §1

winter wheat = assay: Test E winter wheat; format: in vivo, Triticum aestivum; settings: Preemergence, Rate 250 g/ha
[1] = Preemergence, Rate 62 g/ha, scale of 0 to 10 where 0 is no effect and 10 is complete control
[2] = Preemergence, Rate 250 g/ha, scale of 0 to 10 where 0 is no effect and 10 is complete control
[3] = Preemergence, Rate 500 g/ha, scale of 0 to 10 where 0 is no effect and 10 is complete control
[4] = Rate 62 g/ha, Postemergence, scale 0 to 10, 0 no effect, 10 complete control
[5] = Rate 125 g/ha, Postemergence, scale of 0 to 10 where 0 is no effect and 10 is complete control
[6] = Rate 125 g/ha, Preemergence, scale of 0 to 10 where 0 is no effect and 10 is complete control
[7] = Rate 250 g/ha, Postemergence, scale of 0 to 10 where 0 is no effect and 10 is complete control
[8] = Postemergence, Rate 62 g/ha, scale 0 to 10, 0 is no effect, 10 is complete control
[9] = Postemergence, Rate 125 g/ha, scale of 0 to 10 where 0 is no effect and 10 is complete control
[10] = Preemergence, Rate 125 g/ha, scale of 0 to 10 where 0 is no effect and 10 is complete control
[11] = Preemergence, Rate 250 g/ha, scale 0 to 10 (0 no effect, 10 complete control)
[12] = Rate 62 g/ha, flood test species, Pre-emergence
[13] = Rate 125 g/ha, flood test species
[14] = Rate 250 g/ha, Pre-emergence (flood test species), scale 0 to 10, 0 is no effect, 10 is complete control
[15] = Rate 500 g/ha, Pre-emergence section of Table B, 0 to 10 scale (0 no effect, 10 complete control)
[16] = Rate 500 g/ha, Postemergence, scale 0 to 10, 0 is no effect, 10 is complete control
[17] = Preemergence, Rate 250 g/ha, scale 0 (no effect) to 10 (complete control)
[18] = Rate 62 g/ha, Preemergence, scale 0 to 10
[19] = Rate 250 g/ha, Postemergence, scale 0 to 10, 0 is no effect, 10 is complete control
[20] = Rate 500 g/ha, Preemergence, scale 0 to 10 (0 no effect, 10 complete control)

CCC=CCn1c(=O)on(C(=O)N(c2ccc(F)cc2)C(C)C)c1=O [Compound 286]
Wheat plant response rating (wheat; [1]): 0 | Wheat plant response rating (wheat; [2]): 0 | Plant response rating, Wheat (wheat; [3]): 2 | Wheat plant response rating (wheat; [4]): 0 | Wheat plant response rating (wheat; [5]): 3 | Wheat plant response rating (wheat; [6]): 0 | Plant response rating, Wheat (wheat; [7]): 3 | Ducksalad plant response rating (duck salad; Rate 62 g/ha, headed Pre-emergence (flood test species), scale 0 to 10 (0 no effect, 10 complete control)): 0 | Ducksalad plant response rating (duck salad; Rate 125 g/ha, Pre-emergence, flood test species, scale 0 to 10 where 0 is no effect and 10 is complete control): 0 | Ducksalad plant response rating (duck salad; Rate 250 g/ha, Pre-emergence, flood-test species, scale 0 to 10, 0 is no effect, 10 is complete control): 0 | Ducksalad plant response rating (duck salad; Rate 500 g/ha, Pre-emergence, flood test species, scale 0 to 10 (0 no effect, 10 complete control)): 0 | Green foxtail plant response rating (0 to 100 scale) (green foxtail): 55 | Wild oat plant response rating (0 to 100 scale) (wild oat): 10 | I. Ryegrass plant response rating (0 to 100 scale) (Italian ryegrass): 40 | Blackgrass plant response rating (0 to 100 scale) (blackgrass): 10 | Barley (winter) plant response rating (0 to 100 scale) (winter barley): 5 | Soybean plant response rating (soybean; [1]): 0 | Soybean plant response rating (soybean; [2]): 0 | Plant response rating, Soybean (soybean; [3]): 0 | Soybean plant response rating (soybean; [4]): 1 | Soybean plant response rating (soybean; [5]): 1 | Soybean plant response rating (soybean; [6]): 0 | Plant response rating, Soybean (soybean; [7]): 2 | Nutsedge plant response rating (purple nutsedge; [1]): 0 | Nutsedge plant response rating (purple nutsedge; [2]): 0 | Nutsedge plant response rating (purple nutsedge; [4]): 0 | Nutsedge plant response rating (purple nutsedge; [5]): 0 | Nutsedge plant response rating (purple nutsedge; [6]): 0 | Plant response rating, Nutsedge (purple nutsedge; [7]): 0 | Wheat (winter) plant response rating (0 to 100 scale) (winter wheat): 40

CC(C)N(C(=O)n1oc(=O)n(Cc2nnc(Cl)s2)c1=O)c1ccc(F)cc1 [Compound 646]
Plant response rating, Wheat (wheat; [8]): 0 | Wheat plant response rating (wheat; [9]): 0 | Wheat plant response rating (wheat; [1]): 0 | Wheat plant response rating (wheat; [10]): 0 | Plant response rating, Wheat (wheat; [11]): 0 | Plant response rating, Wheat (wheat; [3]): 0 | Plant response rating, Ducksalad (0 to 10 scale, 0 is no effect, 10 is complete control) (duck salad; [12]): 0 | Ducksalad plant response rating (0 to 10 scale, 0 is no effect, 10 is complete control) (duck salad; [13]): 0 | Ducksalad plant response rating (duck salad; [14]): 0 | Ducksalad plant response rating (duck salad; [15]): 0 | Plant response rating, Soybean (soybean; [8]): 0 | Soybean plant response rating (soybean; [9]): 1 | Soybean plant response rating (soybean; [1]): 0 | Soybean plant response rating (soybean; [10]): 0 | Plant response rating, Soybean (soybean; [11]): 0 | Plant response rating, Soybean (soybean; [3]): 0 | Plant response rating, Nutsedge (purple nutsedge; [8]): 0 | Nutsedge plant response rating (purple nutsedge; [9]): 0 | Plant response rating, Nutsedge (purple nutsedge; Postemergence, Rate 500 g/ha, scale of 0 to 10 where 0 is no effect and 10 is complete control): 0 | Nutsedge plant response rating (purple nutsedge; [1]): 0 | Nutsedge plant response rating (purple nutsedge; [10]): 0 | Plant response rating, Nutsedge (purple nutsedge; [11]): 0 | Plant response rating, Nutsedge (purple nutsedge; [3]): 0

C=C(Cn1c(=O)on(C(=O)N(c2ccccc2)C(C)C)c1=O)C(C)C [Compound 649]
Plant response rating, Wheat (wheat; [8]): 0 | Wheat plant response rating (wheat; [9]): 0 | Wheat plant response rating (wheat; [1]): 0 | Wheat plant response rating (wheat; [10]): 0 | Plant response rating, Wheat (wheat; [11]): 0 | Plant response rating, Wheat (wheat; [3]): 0 | Wheat plant response rating (wheat; [16]): 0 | Plant response rating, Ducksalad (0 to 10 scale, 0 is no effect, 10 is complete control) (duck salad; [12]): 0 | Ducksalad plant response rating (0 to 10 scale, 0 is no effect, 10 is complete control) (duck salad; [13]): 0 | Ducksalad plant response rating (duck salad; [14]): 0 | Ducksalad plant response rating (duck salad; [15]): 0 | Plant response rating, Soybean (soybean; [8]): 2 | Soybean plant response rating (soybean; [9]): 2 | Soybean plant response rating (soybean; [1]): 0 | Soybean plant response rating (soybean; [10]): 0 | Plant response rating, Soybean (soybean; [11]): 0 | Plant response rating, Soybean (soybean; [3]): 0 | Soybean plant response rating (soybean; [16]): 3 | Plant response rating, Nutsedge (purple nutsedge; [8]): 0 | Nutsedge plant response rating (purple nutsedge; [9]): 0 | Nutsedge plant response rating (purple nutsedge; [1]): 0 | Nutsedge plant response rating (purple nutsedge; [10]): 0 | Plant response rating, Nutsedge (purple nutsedge; [11]): 0 | Plant response rating, Nutsedge (purple nutsedge; [3]): 0 | Nutsedge plant response rating (purple nutsedge; [16]): 0

CC(C)N(C(=O)n1oc(=O)n(CCCC#N)c1=O)c1ccc(F)cc1F [Compound 675]
Plant response rating, Wheat (wheat; [8]): 0 | Wheat plant response rating (wheat; [9]): 3 | Wheat plant response rating (wheat; [1]): 0 | Plant response rating, Wheat (wheat; [10]): 2 | Plant response rating, Wheat (wheat; [3]): 9 | Wheat plant response rating (wheat; [16]): 7 | Plant response rating, Ducksalad (0 to 10 scale, 0 is no effect, 10 is complete control) (duck salad; [12]): 0 | Ducksalad plant response rating (0 to 10 scale, 0 is no effect, 10 is complete control) (duck salad; [13]): 0 | Ducksalad plant response rating (duck salad; [14]): 0 | Ducksalad plant response rating (duck salad; [15]): 0 | Plant response rating, Soybean (soybean; [8]): 4 | Soybean plant response rating (soybean; [9]): 5 | Soybean plant response rating (soybean; [1]): 0 | Plant response rating, Soybean (soybean; [10]): 0 | Plant response rating, Soybean (soybean; [3]): 4 | Soybean plant response rating (soybean; [16]): 5 | Plant response rating, Nutsedge (purple nutsedge; [8]): 0 | Nutsedge plant response rating (purple nutsedge; [9]): 0 | Nutsedge plant response rating (purple nutsedge; [1]): 0 | Plant response rating, Nutsedge (purple nutsedge; [10]): 0 | Plant response rating, Nutsedge (purple nutsedge; [3]): 7 | Nutsedge plant response rating (purple nutsedge; [16]): 8

CC(C)N(C(=O)n1oc(=O)n(CC2=NOCCO2)c1=O)c1ccc(F)cc1F [Compound 758]
Plant response rating, Wheat (wheat; [8]): 0 | Plant response rating, Wheat (wheat; [10]): 5 | Wheat plant response rating (wheat; [17]): 5 | Wheat plant response rating (wheat; [18]): 4 | Wheat plant response rating (wheat; [19]): 5 | Wheat plant response rating (wheat; [16]): 6 | Wheat plant response rating (wheat; [20]): 7 | Ducksalad plant response rating (duck salad; Pre-emergence, Rate 62 g/ha, scale 0 to 10, 0 is no effect, 10 is complete control): 0 | Ducksalad plant response rating (duck salad; Rate 125 g/ha, Pre-emergence section (flood test species), scale 0 to 10, 0 no effect, 10 complete control): 0 | Ducksalad plant response rating (duck salad; [14]): 0 | Ducksalad plant response rating (duck salad; [15]): 0 | Plant response rating, Soybean (soybean; [8]): 4 | Plant response rating, Soybean (soybean; [10]): 0 | Soybean plant response rating (soybean; [17]): 0 | Soybean plant response rating (soybean; [18]): 0 | Soybean plant response rating (soybean; [19]): 5 | Soybean plant response rating (soybean; [16]): 5 | Soybean plant response rating (soybean; [20]): 0 | Plant response rating, Nutsedge (purple nutsedge; [8]): 0 | Nutsedge plant response rating (purple nutsedge; [9]): 0 | Plant response rating, Nutsedge (purple nutsedge; [10]): 0 | Nutsedge plant response rating (purple nutsedge; [17]): 0 | Nutsedge plant response rating (purple nutsedge; [18]): 0 | Nutsedge plant response rating (purple nutsedge; [19]): 0 | Nutsedge plant response rating (purple nutsedge; [16]): 0
